The text below walks through data of BindingDB's records for doi:10.1016/j.bmcl.2003.11.081 (Cubist Pharmaceuticals, 2004).

Experiment [1] concerns the target T1, Phenylalanine--tRNA ligase, mitochondrial (Homo sapiens, UniProt O95363).
T1 sequence (O95363 whole entry): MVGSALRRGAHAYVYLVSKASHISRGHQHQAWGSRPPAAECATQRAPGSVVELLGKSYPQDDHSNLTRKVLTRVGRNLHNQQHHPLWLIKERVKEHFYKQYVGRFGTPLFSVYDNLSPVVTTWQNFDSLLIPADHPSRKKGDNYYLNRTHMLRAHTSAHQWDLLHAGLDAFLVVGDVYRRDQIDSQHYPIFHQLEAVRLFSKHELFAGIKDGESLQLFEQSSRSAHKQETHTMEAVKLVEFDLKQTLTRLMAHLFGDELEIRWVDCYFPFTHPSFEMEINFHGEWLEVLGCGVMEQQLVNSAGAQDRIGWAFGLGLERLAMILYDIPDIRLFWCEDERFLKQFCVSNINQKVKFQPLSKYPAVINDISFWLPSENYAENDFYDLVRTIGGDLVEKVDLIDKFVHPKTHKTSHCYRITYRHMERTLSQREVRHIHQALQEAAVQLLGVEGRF
Nature of the experiment: ChEBML_154873. The procedure: (§1) Inhibitory activity against human phenylalanyl-tRNA synthetase was determined

In experiment [2] the target is Phenylalanine--tRNA ligase (Enterococcus faecalis). As to the kind of experiment: Inhibitory activity against phenylalanyl-tRNA synthetase from Enterococcus faecalis.
For experiment [3] the target is unchanged. The description is as above. The source holds these as a separate data set.
In experiment [4] the target is Phenylalanine--tRNA ligase (Staphylococcus aureus). Nature of the experiment: Inhibitory activity against phenylalanyl-tRNA synthetase from Staphylococcus aureus.
Experiment [5] addresses T1, Phenylalanine--tRNA ligase, mitochondrial. Described as §1.

Structures are written as SMILES.

For `Cc1ccc(C2OC3(C(=O)c4ccccc4C3=O)c3c2c(O)n(-c2ccc4c(c2)OCO4)c3O)cc1` [5-benzo[d][1,3]dioxol-5-yl-3-(4-methylphenyl)-(3R,3aS,6aR)-spiro[perhydrofuro[3,4-c]pyrrole-1,2'-(2',3'-dihydro-1'H-indene)]-1',3',4,6-tetraone], the IC50 in experiment [1], in experiment [2] and in experiment [3] was over 100 µM each time.
As for `O=C1c2ccccc2C(=O)C12OC(c1ccccc1)c1c2c(O)n(-c2ccc([N+](=O)[O-])cc2)c1O` [5-(4-nitrophenyl)-3-phenyl-(3R,3aS,6aR)-spiro[perhydrofuro[3,4-c]pyrrole-1,2'-(2',3'-dihydro-1'H-indene)]-1',3',4,6-tetraone], the IC50 in experiment [1], in experiment [2] and in experiment [4] was over 100 µM each time.
As to `Oc1c2c(c(O)n1-c1ccc(Cl)c(Cl)c1)C1(Cc3ccccc3C1)NC2c1ccccc1` (stereo unspecified), the IC50 in experiment [1], in experiment [5], in experiment [2], in experiment [3] and in experiment [4] was over 100 µM in each case.
With `O=C1c2ccccc2C(=O)C12OC(c1ccccc1)c1c2c(O)n(-c2ccc(Cl)c(C(F)(F)F)c2)c1O` [5-(4-chloro-3-trifluoromethylphenyl)-3-phenyl-(3R,3aS,6aR)-spiro[perhydrofuro[3,4-c]pyrrole-1,2'-(2',3'-dihydro-1'H-indene)]-1',3',4,6-tetraone], the IC50 in experiment [2] came out at 32 µM; in experiment [4] it was 45 µM.
As to `COC(=O)C1NC(c2ccccc2)c2c1c(O)n(-c1ccc(Cl)c(Cl)c1)c2O` [methyl 5-(3,4-dichlorophenyl)-4,6-dioxo-3-phenyl-(3R,3aS,6aR)-perhydropyrrolo[3,4-c]pyrrole-1-carboxylate], the IC50 in experiment [1], in experiment [2] and in experiment [3] was over 100 µM throughout.
